Results: patent US20100190849A1, “Novel Clerodanes and Methods for Repelling Arthropods” (priority 2006, published 2010)
Marks after values point to notes of the source that are not given here.

Tests used:
Type in all cases: in vivo
[1] = system: black imported fire ants, Solenopsis richteri Forel; test: Multiple-choice digging bioassay, fire ant workers
Protocol: (§1) The repellency of the two terpenoids, callicarpenal and intermedeol, against workers of red imported fire ants, Solenopsis invicta Buren, black imported fire ants, Solenopsis rickeri Forel, and a hybrid of these two species was evaluated using multiple-choice digging bioassays (Tables 9 & 10). […] Callicarpenal and intermedeol were compared with octanoic acid, a known fire ant repellant, at the 25.00 ppm level using two-choice digging bioassays (FIGS. 3 and 4).
(§2) Ants: Two Solenopsis invicta colonies were collected in Sharkey County, Mississippi, and two Solenopsis richteri colonies were collected in Granada County, Mississippi. Two colonies of the hybrid (S. invicta×S. richteri) colony were collected in Sunflower County, Mississippi. Fire ant mounds were shoveled and placed in 19-L plastic buckets. The inside wall of the bucket was then coated with baby powder (Cumberland Swan Holdings, Inc., Smyrna, Tenn.) to prevent ant escape. Following the water-drip method developed by Bank et al. (Banks, W. A., et al., Techniques for collecting, rearing, and handling imported fire ants, USDA SEA AATS-S-21 (1981)), ants were separated and then placed in a 44.5×60.0×13.0 cm plastic tray with inside walls coated with Fluon® (Ag Fluoropolymers, Chadds Ford, Pa.). Distilled water and 15% (w/v) sucrose water solution in separated test tubes which were plugged with cotton balls were placed in the trays. Heliocoverpa zea (Boddie) and tobacco budworm, Heliothis virescens (Fabricius) pupae were used as food sources. Inside each tray were one to three 14.0×2.0 cm Petri dishes with 1.0 cm of hardener dental plaster (Castone®; Dentsply International Inc. York, Pa.) on the bottom. Also, in the center of the Petri dish was a 5.0-cm diameter brood chamber. Two 8-mm access holes were made on the wall of the petri dish above the dental plaster. The Petri dish lid was painted black (1302 Gloss Black Spray Enamel, Louisville, Ky.)to block the light. All colonies were maintained at 22-25° C.
(§3) Fire ant workers dug and removed sand from the tube through the entry hole. The differences in the amount of removed sand among treated and control tubes were used to evaluate chemical repellency. Four 2 ml centrifuge tubes were mounted under a 14.0×2.3 cm Petri dish using glue (Arrow Fastener Co., inc., Saddle Brook, N.J.). Tubes were 5.0 cm away from the center of the Petri dish and at equal distance from each other. A 3-mm diameter access hole was drilled for each centrifuge tube, which went through the bottom of the Petri dish and the cap of the tube. The inner side of the Petri dish was coated with Fluon. Three concentrations of a test compound and one control were set up in each apparatus. Six concentrations, including […], 6.25, 12.50, and 25.00 ppm, were tested in two separated bioassays for each species and hybrid; however three more concentrations of callicarpenal, 50.00, 100.00, and […], were tested for S. invicta. Sand (Premium Play Sand, Plassein International, Longview, Tex.) was first sieved through a ™35 U.S.A. standard testing sieve (Thomas Scientific, Swedesboro, N.J.) and then washed with distilled water and dried at 350° C. for 12 h. A 3 ml dichloromethane solution of callicarpenal or intermedeol was mixed with 30 g sand in an aluminum pan. The sand was stirred every 2 min to facilitate the evaporation of the solvent under a fume hood. After dichloromethane evaporated (5 minutes), 1.92 ml distilled water was added and mixed with sand. Sand in the control tube was treated only with dichloromethane. In each tube a mean (±SD) 2.78 g (±0.06 g) wet sand was added. There was no open space inside the tube. Locations of each concentration were randomized. Fifty fire ant workers were introduced into the center of the Petri Dish. The experiment was conducted at 22±0.8° C. (mean±SD) temperature and 45.4%±11.87% relative humidity. After 24 h, sand in each vial was collected, dried at 150° C. for at least 4 hour, and weighed. […]

[2] = system: hybrid (S. invicta×S. richteri); test: Multiple-choice digging bioassay, fire ant workers
Protocol: as §1, §2, §3

[3] = system: red imported fire ants, Solenopsis invicta Buren; test: Multiple-choice digging bioassay, fire ant workers
Protocol: as §1, §2, §3

[4] = system: hybrid (S. invicta×S. richteri); test: Two-choice digging bioassay, head-to-head against octanoic acid; settings: 25.00 ppm; all hybrid colonies; FIG. 4
Protocol: as §1
Head-to-head comparison on repellency of callicarpenal and intermedeol against octanoic acid: The bioassay apparatus was similar as described above, except a smaller Petri dish (8.7×2.3 cm) was used and only two choices were presented: one was sand treated with callicarpenal or intermedeol and the other with octanoic acid. Two choices were opposite each other across the center of the Petri dish and each was 3.0 cm away from the center. All compounds were tested at a 25.00 ppm level. Sand preparation was similar as described above. Ants from the same colonies as above were used in this experiment. There were five replications for each pair of comparisons. A paired t-test (critical P-value=0.05) was used to compare the mean amount of sand removed between two tubes.

SMILES: C=C(C)C1CCC2(C)CCCC(C)(O)C2C1 [intermedeol, (4S,5S,7R,10S)-eudesm-11-en-4-ol]
- Sand removed (SE), mean weight of sand removed by ants 24 h after release ([1]; S. richteri colony 1, Exp. 19, 0.75 ppm): 0.10 (0.06) g
- Sand removed (SE), mean weight of sand removed by ants 24 h after release ([1]; S. richteri colony 1, Exp. 19, 1.50 ppm): 0.46 (0.18) g
- Sand removed (SE), mean weight of sand removed by ants 24 h after release ([1]; S. richteri colony 1, Exp. 19, 3.15 ppm): 0.24 (0.11) g
- Sand removed (SE), mean weight of sand removed by ants 24 h after release ([1]; S. richteri colony 1, Exp. 20, 6.25 ppm): 0.16 (0.10)* g
- Sand removed (SE), mean weight of sand removed by ants 24 h after release ([1]; S. richteri colony 1, Exp. 20, 12.50 ppm): 0.07 (0.04)* g
- Sand removed (SE), mean weight of sand removed by ants 24 h after release ([1]; S. richteri colony 1, Exp. 20, 25.00 ppm): 0.04 (0.01)* g
- Sand removed (SE), mean weight of sand removed by ants 24 h after release ([1]; S. richteri colony 2, Exp. 21, 0.75 ppm): 0.16 (0.12) g
- Sand removed (SE), mean weight of sand removed by ants 24 h after release ([1]; S. richteri colony 2, Exp. 21, 1.50 ppm): 0.26 (0.17) g
- Sand removed (SE), mean weight of sand removed by ants 24 h after release ([1]; S. richteri colony 2, Exp. 21, 3.15 ppm): 0.17 (0.16) g
- Sand removed (SE), mean weight of sand removed by ants 24 h after release ([1]; S. richteri colony 2, Exp. 22, 6.25 ppm): 0.02 (0.01)* g
- Sand removed (SE), mean weight of sand removed by ants 24 h after release ([1]; S. richteri colony 2, Exp. 22, 12.50 ppm): 0.14 (0.07)* g
- Sand removed (SE), mean weight of sand removed by ants 24 h after release ([1]; S. richteri colony 2, Exp. 22, 25.00 ppm): 0.02 (0.02)* g
- Sand removed (SE), mean weight of sand removed by ants 24 h after release ([2]; Hybrid colony 1, Exp. 23, 0.75 ppm): 0.43 (0.15) g
- Sand removed (SE), mean weight of sand removed by ants 24 h after release ([2]; Hybrid colony 1, Exp. 23, 1.50 ppm): 0.10 (0.03)* g
- Sand removed (SE), mean weight of sand removed by ants 24 h after release ([2]; Hybrid colony 1, Exp. 23, 3.15 ppm): 0.10 (0.03)* g
- Sand removed (SE), mean weight of sand removed by ants 24 h after release ([2]; Hybrid colony 1, Exp. 24, 6.25 ppm): 0.45 (0.08)* g
- Sand removed (SE), mean weight of sand removed by ants 24 h after release ([2]; Hybrid colony 1, Exp. 24, 12.50 ppm): 0.37 (0.04)* g
- Sand removed (SE), mean weight of sand removed by ants 24 h after release ([2]; Hybrid colony 1, Exp. 24, 25.00 ppm): 0.20 (0.09)* g
- Sand removed (SE), mean weight of sand removed by ants 24 h after release ([2]; Hybrid colony 2, Exp. 25, 0.75 ppm): 0.34 (0.14) g
- Sand removed (SE), mean weight of sand removed by ants 24 h after release ([2]; Hybrid colony 2, Exp. 25, 1.50 ppm): 0.25 (0.10) g
- Sand removed (SE), mean weight of sand removed by ants 24 h after release ([2]; Hybrid colony 2, Exp. 25, 3.15 ppm): 0.28 (0.09) g
- Sand removed (SE), mean weight of sand removed by ants 24 h after release ([2]; Hybrid colony 2, Exp. 26, 6.25 ppm): 0.20 (0.08)* g
- Sand removed (SE), mean weight of sand removed by ants 24 h after release ([2]; Hybrid colony 2, Exp. 26, 12.50 ppm): 0.10 (0.04)* g
- Sand removed (SE), mean weight of sand removed by ants 24 h after release ([2]; Hybrid colony 2, Exp. 26, 25.00 ppm): 0.04 (0.01)* g
- Sand removed (SE), mean weight of sand removed by ants 24 h after release ([3]; S. invicta colony 1, Exp. 15, 0.75 ppm): 0.56 (0.06) g
- Sand removed (SE), mean weight of sand removed by ants 24 h after release ([3]; S. invicta colony 1, Exp. 15, 1.50 ppm): 0.36 (0.09)* g
- Sand removed (SE), mean weight of sand removed by ants 24 h after release ([3]; S. invicta colony 1, Exp. 15, 3.15 ppm): 0.20 (0.06)* g
- Sand removed (SE), mean weight of sand removed by ants 24 h after release ([3]; S. invicta colony 1, Exp. 16, 6.25 ppm): 0.66 (0.15)* g
- Sand removed (SE), mean weight of sand removed by ants 24 h after release ([3]; S. invicta colony 1, Exp. 16, 12.50 ppm): 0.25 (0.13)* g
- Sand removed (SE), mean weight of sand removed by ants 24 h after release ([3]; S. invicta colony 1, Exp. 16, 25.00 ppm): 0.18 (0.09)* g
- Sand removed (SE), mean weight of sand removed by ants 24 h after release ([3]; S. invicta colony 2, Exp. 17, 0.75 ppm): 0.44 (0.10)* g
- Sand removed (SE), mean weight of sand removed by ants 24 h after release ([3]; S. invicta colony 2, Exp. 17, 1.50 ppm): 0.35 (0.08)* g
- Sand removed (SE), mean weight of sand removed by ants 24 h after release ([3]; S. invicta colony 2, Exp. 17, 3.15 ppm): 0.35 (0.12)* g
- Sand removed (SE), mean weight of sand removed by ants 24 h after release ([3]; S. invicta colony 2, Exp. 18, 6.25 ppm): 0.17 (0.08)* g
- Sand removed (SE), mean weight of sand removed by ants 24 h after release ([3]; S. invicta colony 2, Exp. 18, 12.50 ppm): 0.02 (0.01)* g
- Sand removed (SE), mean weight of sand removed by ants 24 h after release ([3]; S. invicta colony 2, Exp. 18, 25.00 ppm): 0.04 (0.01)* g
- repellency compared with octanoic acid (in words) [4]: significantly greater repellency than octanoic acid
